Results on 24 compounds are retold here after patent publication US8569292B2, “Cyclic inhibitors of 11β-hydroxysteroid dehydrogenase 1” (Vitae Pharmaceuticals, Inc., priority 2008, dated 2013).

Type in all cases: in vitro ADME
The target in one assay is CYP2C19 (Homo sapiens, UniProt P33261). As to the kind of experiment: Biological Test Example 8: CYP2C19 inhibition (diazepam N-demethylation).
The next assay concerns the target T1, CYP2C9 (Homo sapiens, UniProt P11712).
T1 construct: purchased Invitrogen 2859; host or cells: insect cells infected with baculovirus (microsomes)
As to the kind of experiment: Biological Test Example 7: CYP2C9 inhibition (naproxen O-demethylation).

The target in a further assay is CYP3A4 (Homo sapiens, UniProt P08684). As to the kind of experiment: Biological Test Example 6: CYP3A4 inhibition (erythromycin N-demethylation).

Structures are written as SMILES.

Sequence of CYP2C19 (P33261 whole entry): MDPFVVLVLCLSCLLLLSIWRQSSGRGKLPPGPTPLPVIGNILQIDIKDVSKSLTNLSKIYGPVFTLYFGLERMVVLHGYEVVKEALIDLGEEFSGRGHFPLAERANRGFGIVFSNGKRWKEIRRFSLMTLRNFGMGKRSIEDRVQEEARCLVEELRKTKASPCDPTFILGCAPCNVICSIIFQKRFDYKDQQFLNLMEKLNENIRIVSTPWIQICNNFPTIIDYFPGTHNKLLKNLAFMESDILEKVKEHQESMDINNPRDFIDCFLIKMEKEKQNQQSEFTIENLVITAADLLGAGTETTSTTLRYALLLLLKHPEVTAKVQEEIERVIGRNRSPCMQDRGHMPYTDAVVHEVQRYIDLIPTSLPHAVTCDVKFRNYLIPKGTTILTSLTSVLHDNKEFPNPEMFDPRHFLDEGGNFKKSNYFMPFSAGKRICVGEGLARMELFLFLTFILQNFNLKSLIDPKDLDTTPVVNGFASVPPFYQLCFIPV
Sequence of CYP3A4 (P08684 whole entry): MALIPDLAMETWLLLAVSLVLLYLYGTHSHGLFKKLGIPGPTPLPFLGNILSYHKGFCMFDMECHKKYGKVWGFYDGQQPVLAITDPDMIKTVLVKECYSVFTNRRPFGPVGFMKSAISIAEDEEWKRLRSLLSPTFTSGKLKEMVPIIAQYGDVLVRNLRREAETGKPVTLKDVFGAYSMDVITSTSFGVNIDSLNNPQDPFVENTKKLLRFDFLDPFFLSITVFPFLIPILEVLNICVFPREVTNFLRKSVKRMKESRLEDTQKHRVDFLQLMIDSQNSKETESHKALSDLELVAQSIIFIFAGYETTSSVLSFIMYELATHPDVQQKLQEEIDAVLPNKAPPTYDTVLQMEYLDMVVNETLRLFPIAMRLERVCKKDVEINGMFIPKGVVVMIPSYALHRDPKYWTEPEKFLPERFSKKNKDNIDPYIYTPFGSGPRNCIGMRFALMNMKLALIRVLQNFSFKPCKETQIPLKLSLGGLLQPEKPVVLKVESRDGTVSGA
T1 sequence (P11712 whole entry): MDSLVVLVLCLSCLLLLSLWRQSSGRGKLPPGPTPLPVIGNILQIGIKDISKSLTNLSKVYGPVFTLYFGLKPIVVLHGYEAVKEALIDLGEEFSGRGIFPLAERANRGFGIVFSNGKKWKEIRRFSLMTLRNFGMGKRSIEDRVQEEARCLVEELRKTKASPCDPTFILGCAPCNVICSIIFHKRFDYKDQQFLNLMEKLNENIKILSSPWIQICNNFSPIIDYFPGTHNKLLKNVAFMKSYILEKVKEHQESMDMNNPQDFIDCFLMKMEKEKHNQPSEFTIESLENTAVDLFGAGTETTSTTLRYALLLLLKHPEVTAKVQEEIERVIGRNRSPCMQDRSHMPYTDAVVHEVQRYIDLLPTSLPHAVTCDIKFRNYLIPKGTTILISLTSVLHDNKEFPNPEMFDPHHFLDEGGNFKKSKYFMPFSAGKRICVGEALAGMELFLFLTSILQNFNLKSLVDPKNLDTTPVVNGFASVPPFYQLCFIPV

The IC50 is the concentration needed to halve the response being measured. As for `C[C@@H](c1ccc(-c2cnn(C)c2)cc1)N1CC[C@](CC(C)(C)O)(c2ccccc2)OC1=O` [EXAMPLE 178, (S)-6-(2-Hydroxy-2-methyl-propyl)-3-{(S)-1-[4-(1-methyl-1H-pyrazol-4-yl)-phenyl]-ethyl}-6-phenyl-[1,3]oxazinan-2-one], the IC50 on CYP2C19 is over 50 µM; against CYP2C9, 21.3 µM; against CYP3A4, over 50 µM.
With `CNC(=O)c1ccc(-c2ccc([C@H](C)N3CC[C@](CC(C)(C)O)(c4ccccc4)OC3=O)cc2)cn1` [EXAMPLE 169, 5-(4-{(S)-1-[(S)-6-(2-Hydroxy-2-methyl-propyl)-2-oxo-6-phenyl-[1,3]oxazinan-3-yl]-ethyl}-phenyl)-pyridine-2-carboxylic acid methylamide], the half-maximal inhibitory concentration (IC50) at CYP2C19 was 5.9 µM; at CYP2C9 it was 45.2 µM; against CYP3A4, 28.4 µM.
The like results for `C[C@@H](c1ccc(-c2cncc([S+](C)[O-])c2)cc1)N1CC[C@](CC(C)(C)O)(c2ccccc2)OC1=O` (stereo partly drawn) [EXAMPLE 189, (S)-6-(2-Hydroxy-2-methyl-propyl)-3-{(S)-1-[4-(5-methanesulfinyl-pyridin-3-yl)-phenyl]-ethyl}-6-phenyl-[1,3]oxazinan-2-one] were, in that order, over 50 µM, over 50 µM and over 50 µM.
The corresponding values for `C[C@@H](c1ccc(-c2nncs2)cc1)N1CC[C@](CC(C)(C)O)(c2ccccc2)OC1=O` [EXAMPLE 173, (S)-6-(2-Hydroxy-2-methyl-propyl)-6-phenyl-3-[(S)-1-(4-[1,3,4]thiadiazol-2-yl-phenyl)-ethyl]-[1,3]oxazinan-2-one] are 33.6 µM, 27.2 µM and 25.1 µM.
The corresponding values for `Cc1nc(-c2ccc([C@H](C)N3CC[C@](CC(C)(C)O)(c4ccccc4)OC3=O)cc2)sc1C` [EXAMPLE 181, (S)-3-{1-[4-(4,5-Dimethyl-thiazol-2-yl)-phenyl]-ethyl}-6-(2-hydroxy-2-methyl-propyl)-6-phenyl-[1,3]oxazinan-2-one] are 8.2 µM, 5.6 µM and 7.8 µM.
With `C[C@@H](c1ccc(-c2cncs2)cc1)N1CC[C@](CC(C)(C)O)(c2ccccc2)OC1=O` [EXAMPLE 171, (S)-6-(2-Hydroxy-2-methyl-propyl)-6-phenyl-3-[(S)-1-(4-thiazol-5-yl-phenyl)-ethyl]-[1,3]oxazinan-2-one], the IC50 was 0.8 µM on CYP2C19, 9.2 µM on CYP2C9 and under 0.4 µM on CYP3A4.
Turning to `Cc1nn(C)cc1-c1ccc([C@H](C)N2CC[C@](CC(C)(C)O)(c3ccccc3)OC2=O)cc1` [EXAMPLE 193, 3-{(S)-1-[4-(1,3-Dimethyl-1H-pyrazol-4-yl)-phenyl]-ethyl}-(S)-6-(2-hydroxy-2-methyl-propyl)-6-phenyl-[1,3]oxazinan-2-one], the half-maximal inhibitory concentration (IC50) at CYP2C19 came to 33.3 µM; at CYP2C9, 24.2 µM; at CYP3A4, 26.6 µM.
Consider `COC[C@]1(c2ccccc2)CCN([C@@H](C)c2ccc(-c3ccc(C)nn3)cc2)C(=O)O1` [EXAMPLE 167, (R)-6-(methoxymethyl)-3-((S)-1-(4-(6-methylpyridazin-3-yl)phenyl)ethyl)-6-phenyl-1,3-oxazinan-2-one], for which the IC50 came out at 26.1 µM on CYP2C19, 29.5 µM at CYP2C9 and 46.7 µM at CYP3A4.
As for `C[C@@H](c1ccc(-c2ccc(C(=O)N(C)C)nc2)cc1)N1CC[C@](CC(C)(C)O)(c2ccccc2)OC1=O` [EXAMPLE 170], the values for the IC50 against CYP2C19, against CYP2C9 and on CYP3A4 were 39.4 µM, 48.6 µM and 45.6 µM, respectively.
The like results for `Cc1nn(C)c(C)c1-c1ccc([C@H](C)N2CC[C@](CC(C)(C)O)(c3ccccc3)OC2=O)cc1` [EXAMPLE 177, (S)-6-(2-Hydroxy-2-methyl-propyl)-6-phenyl-3-{(S)-1-[4-(1,3,5-trimethyl-1H-pyrazol-4-yl)-phenyl]-ethyl}-[1,3]oxazinan-2-one] were, in that order, 17.7 µM, 8.8 µM and over 50 µM.
Take `C[C@@H](c1ccc(-c2ccnc(S(C)(=O)=O)c2)cc1)N1CC[C@](CC(C)(C)O)(c2ccccc2)OC1=O` [EXAMPLE 187, (S)-6-(2-Hydroxy-2-methyl-propyl)-3-{(S)-1-[4-(2-methanesulfonyl-pyridin-4-yl)-phenyl]-ethyl}-6-phenyl-[1,3]oxazinan-2-one]: the half-inhibitory concentration (IC50) against CYP2C19 was over 50 µM; against CYP2C9, 25.9 µM; on CYP3A4, over 50 µM.
With `C[C@@H](c1ccc(-c2ccc([S+](C)[O-])nc2)cc1)N1CC[C@](CC(C)(C)O)(c2ccccc2)OC1=O` (stereo partly drawn) [EXAMPLE 182, (S)-6-(2-Hydroxy-2-methyl-propyl)-3-{(S)-1-[4-(6-methanesulfinyl-pyridin-3-yl)-phenyl]-ethyl}-6-phenyl-[1,3]oxazinan-2-one], the IC50 on CYP2C19, against CYP2C9 and on CYP3A4 was over 50 µM in each case.
On to `C[C@@H](c1ccc(-c2cc(S(C)(=O)=O)ccn2)cc1)N1CC[C@](CC(C)(C)O)(c2ccccc2)OC1=O` [EXAMPLE 185, (S)-6-(2-Hydroxy-2-methyl-propyl)-3-{(S)-1-[4-(4-methanesulfonyl-pyridin-2-yl)-phenyl]-ethyl}-6-phenyl-[1,3]oxazinan-2-one], for which the IC50 at CYP2C19 was 25.7 µM; against CYP2C9 it was 30 µM; against CYP3A4, 42.9 µM.
In the case of `Cc1ncc(-c2ccc([C@H](C)N3CC[C@](CC(C)(C)O)(c4ccccc4)OC3=O)cc2)s1` [EXAMPLE 180, (S)-6-(2-Hydroxy-2-methyl-propyl)-3-{(S)-1-[(2-methyl-4-thiazol-5-yl)-phenyl]-ethyl}-6-phenyl-[1,3]oxazinan-2-one], the IC50 against CYP2C19 was found to be 14.4 µM; against CYP2C9, 9.2 µM; against CYP3A4, 9.8 µM.
The corresponding values for `C[C@@H](c1ccc(-c2nccs2)cc1)N1CC[C@](CC(C)(C)O)(c2ccccc2)OC1=O` [EXAMPLE 174, (S)-6-(2-Hydroxy-2-methyl-propyl)-6-phenyl-3-[(S)-1-(4-thiazol-2-yl-phenyl)-ethyl]-[1,3]oxazinan-2-one] are 1 µM, 7.8 µM and 5.4 µM.
Turning to `C[C@@H](c1ccc(-c2cccc(S(C)(=O)=O)n2)cc1)N1CC[C@](CC(C)(C)O)(c2ccccc2)OC1=O` [EXAMPLE 190, (S)-6-(2-Hydroxy-2-methyl-propyl)-3-{(S)-1-[4-(6-methanesulfonyl-pyridin-2-yl)-phenyl]-ethyl}-6-phenyl-[1,3]oxazinan-2-one], the half-inhibitory concentration (IC50) against CYP2C19 was over 50 µM; against CYP2C9 it was over 50 µM; against CYP3A4, 33.7 µM.
Turning to `C[C@@H](c1ccc(-c2cncc(S(C)(=O)=O)c2)cc1)N1CC[C@](CC(C)(C)O)(c2ccccc2)OC1=O` [EXAMPLE 188, (S)-6-(2-Hydroxy-2-methyl-propyl)-3-{(S)-1-[4-(5-methanesulfonyl-pyridin-3-yl)-phenyl]-ethyl}-6-phenyl-[1,3]oxazinan-2-one], the results for the IC50 against CYP2C19, against CYP2C9 and against CYP3A4 were over 50 µM, 21.2 µM and 42.4 µM, respectively.
The corresponding values for `C[C@@H](c1ccc(-c2ncc(C(=O)NC3CC3)s2)cc1)N1CC[C@](CC(C)(C)O)(c2ccccc2)OC1=O` [EXAMPLE 20, N-cyclopropyl-2-(4-((S)-1-((S)-6-(2-hydroxy-2-methylpropyl)-2-oxo-6-phenyl-1,3-oxazinan-3-yl)ethyl)phenyl)thiazole-5-carboxamide] are 47.7 µM, 15.4 µM and 49.8 µM.
The corresponding values for `C[C@@H](c1ccc(-c2cccc([S+](C)[O-])n2)cc1)N1CC[C@](CC(C)(C)O)(c2ccccc2)OC1=O` (stereo partly drawn) [EXAMPLE 191, (S)-6-(2-Hydroxy-2-methyl-propyl)-3-{(S)-1-[4-(6-methanesulfinyl-pyridin-2-yl)-phenyl]-ethyl}-6-phenyl-[1,3]oxazinan-2-one] are over 50 µM, over 50 µM and 36.4 µM.
The corresponding values for `C[C@@H](c1ccc(-c2cnc(C3CC3)nc2)cc1)N1CC[C@](CC(C)(C)O)(c2ccccc2)OC1=O` [EXAMPLE 192, 3-{(S)-1-[4-(2-Cyclopropyl-pyrimidin-5-yl)-phenyl]-ethyl}-(S)-6-(2-hydroxy-2-methyl-propyl)-6-phenyl-[1,3]oxazinan-2-one] are 15.5 µM, 10.4 µM and 11.2 µM.
Consider `Cc1nc(C)c(-c2ccc([C@H](C)N3CC[C@](CC(C)(C)O)(c4ccccc4)OC3=O)cc2)s1` [EXAMPLE 176, 3-{(S)-1-[4-(2,4-Dimethyl-thiazol-5-yl)-phenyl]-ethyl}-(S)-6-(2-hydroxy-2-methyl-propyl)-6-phenyl-[1,3]oxazinan-2-one], for which the IC50 came out at 7.9 µM on CYP2C19, 6 µM on CYP2C9 and 7.5 µM against CYP3A4.
In the case of `C[C@@H](c1ccc(-c2cscn2)cc1)N1CC[C@](CC(C)(C)O)(c2ccccc2)OC1=O` [EXAMPLE 175, (S)-6-(2-Hydroxy-2-methyl-propyl)-6-phenyl-3-[(S)-1-(4-thiazol-4-yl-phenyl)-ethyl]-[1,3]oxazinan-2-one], the IC50 amounted to 1.8 µM against CYP2C19, 29.8 µM against CYP2C9 and 9.7 µM against CYP3A4.
The like results for `C[C@@H](c1ccc(-c2cc([S+](C)[O-])ccn2)cc1)N1CC[C@](CC(C)(C)O)(c2ccccc2)OC1=O` (stereo partly drawn) [EXAMPLE 184, (S)-6-(2-Hydroxy-2-methyl-propyl)-3-{(S)-1-[4-(4-methanesulfinyl-pyridin-2-yl)-phenyl]-ethyl}-6-phenyl-[1,3]oxazinan-2-one] were, in that order, over 50 µM, over 50 µM and over 50 µM.
As to `C[C@@H](c1ccc(-c2nnc(C(F)(F)F)s2)cc1)N1CC[C@](CC(C)(C)O)(c2ccccc2)OC1=O` [EXAMPLE 179, (S)-6-(2-Hydroxy-2-methyl-propyl)-6-phenyl-3-{(S)-1-[4-(5-trifluoromethyl-[1,3,4]thiadiazol-2-yl)-phenyl]-ethyl}-[1,3]oxazinan-2-one], the IC50 against CYP2C19 was 17 µM; against CYP2C9, 10.7 µM; on CYP3A4, 21.1 µM.
